Experimental data from patent US20240374623A1, “TKTL1 INHIBITORS FOR ANTIVIRAL THERAPY” (Tavargenix GmbH, priority 2021, published 2024).

Tests used:
C-reactive protein (CRP) = test: Individual curative trials in hospitalized COVID-19 patients: C-reactive protein level; assay type: in vivo, human; parameters: unit not given here
SARS-CoV-2 [1] = test: Individual curative trials in hospitalized COVID-19 patients: viral load by PCR; assay type: in vivo, human; conditions: daily less than 20 mg B-OT per 70 kg body weight over 7 days
interleukin-6 (IL-6) = test: Individual curative trials in hospitalized COVID-19 patients: interleukin-6 level; assay type: in vivo, human
[2] = system: human cytomegalovirus (HCMV); test: HCMV-EYFP replication in human embryonic lung fibroblasts (HEL), fluorescence-based antiviral assay; assay type: cell-based; conditions: HCMV-EYFP-infected HEL cells, 48 h incubation; read-out: 50% inhibitory concentration (IC50), EYFP emission reduced by half
Procedure: Furthermore, the sensitivity of HCMV replication to B-OT in human mammalian cells was investigated. For this purpose, experiments were performed as described in the work of Dal Pozzo et al. 2008 with B-OT: Human embryonic lung fibroblasts (HEL) were infected with recombinant HCMV EYFP viruses additionally encoding enhanced yellow fluorescent protein (EYFP) (Dal Pozzo F, et al., 2008). As a measure of viral replication after infection with HCMV-EYFP, the emission of the EYFP protein was measured (excitation wavelength: 485 nm/emission: 530 nm). The constant and low cell-associated background emission measured in an automated manner was subtracted from the fluorescence emission value. To test the antiviral effect of B-OT, HCMV-EYFP-infected cells were incubated for 48 h with different B-OT concentrations (0 to 20 mM B-OT). Dose-dependent inhibition of fluorescence (as a measure of viral replication) was evident. The required compound concentration that reduced EYFP emission by half compared with untreated controls (0 mM B-OT) was defined as the 50% inhibitory concentration (IC50) in the fluorescence-based antiviral assay. The IC50 determined here was 0.5 mM B-OT.

[3] = In vivo pharmacokinetics: blood-brain barrier penetration; conditions: in vivo pharmacokinetics data
From the text: A preferred inhibitory thiamine analog is the substance benfo-oxythiamine (B-OT). B-OT is a precursor (“pro-pharmacon”, “prodrug”) of oxythiamine, can be applied orally and releases oxythiamine shortly after its uptake into the mammalian organism. Via the bloodstream, B-OT can reach all cells in all parts of the body.

[4] = system: SARS-CoV-2 infected Caco-2 cells; conditions: human
TKTL1 promoter = system: TKTL1 promoter; parameters: dose or concentration left out as unconfirmed; conditions: HeLa cells, resveratrol for 48 h; cited from earlier work
SARS-CoV-2 [5] = assay type: cell-based; conditions: 25 μM resveratrol for 48 h, Caco-2 cells
TKTL1 mRNA = assay type: cell-based, human; conditions: different resveratrol concentrations, 24 h
HeLa cells = conditions: cited from earlier work
[6] = daily less than 20 mg B-OT per 70 kg, after 7 days
[7] = hospitalized COVID-19 patients, start of therapy

**Q.** What does the source list for `C/C(=C(\CCOP(=O)(O)O)SC(=O)c1ccccc1)N(C=O)Cc1cnc(C)[nH]c1=O` [B-OT, benfo-oxythiamine]?
**A.** average CRP level under 7-day B-OT therapy (C-reactive protein (CRP); [6]): 5; average CRP level before B-OT therapy (C-reactive protein (CRP); [7]): 77; viral load as detected by PCR (SARS-CoV-2 [1]): significant reduction in viral load; average IL-6 level under 7-day B-OT therapy (interleukin-6 (IL-6); [6]): 5 pg/mL; average IL-6 level before B-OT therapy (interleukin-6 (IL-6); [7]): 63 pg/mL; IC50 [2]: 500 µM

**Q.** With `Cc1ncc(C[n+]2csc(CCO)c2C)c(=O)[nH]1` [oxythiamine] as the compound, how does the blood-brain barrier penetration [3] read?
**A.** The blood-brain barrier penetration was “can penetrate the blood-brain barrier”.

**Q.** Which “viability of Caco-2 cells” value [4] does the source give for `Oc1ccc(C=Cc2cc(O)cc(O)c2)cc1` [resveratrol] here?
**A.** The value was 93%.

**Q.** What about the “reduction in TKTL1 promoter activity compared to untreated cells” value (TKTL1 promoter) of the same compound?
**A.** The value was 75%.

**Q.** And the “decrease of replication ability of SARS-CoV-2 viruses compared to the control” value (SARS-CoV-2 [5])?
**A.** The value was 68%.

**Q.** And the “reduction of TKTL1 mRNA” value (TKTL1 mRNA)?
**A.** Its value is “the higher the concentration the stronger the reduction”.

**Q.** What about the “viability of HeLa cells” value (HeLa cells) of the same compound?
**A.** Its value is “significant decrease in the viability of HeLa cells”.
